pIC50, pKd: −log10 of the molar value. “And” between values parts separate entries of the source, which are not always exact repeats. Identical values can stand only once.
Assays:
[1] = target: AtACBP1; set-up: method as in Xue et al., 2014; details: ref Xue et al., 2014; cited from earlier work
[2] = target: T1, GmACBP4.1_33–354 (WT) (Glycine max, UniProt I1KAV2); details: SEM, n = 3
T1 construct: gene LOC100816670
T1 sequence (I1KAV2 33-354): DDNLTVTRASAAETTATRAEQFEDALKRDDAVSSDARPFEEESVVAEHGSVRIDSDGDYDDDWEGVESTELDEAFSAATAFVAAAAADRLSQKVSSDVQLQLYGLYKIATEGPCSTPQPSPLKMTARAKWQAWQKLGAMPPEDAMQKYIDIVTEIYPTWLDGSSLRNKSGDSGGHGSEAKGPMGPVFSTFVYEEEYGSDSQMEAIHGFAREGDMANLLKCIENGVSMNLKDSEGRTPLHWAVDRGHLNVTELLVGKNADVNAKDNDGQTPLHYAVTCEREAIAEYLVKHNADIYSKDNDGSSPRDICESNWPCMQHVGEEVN
Description: The liposome-associated protein fraction was quantified densitometrically. […] D, Protein–lipid bead binding assays with competing acyl-CoAs. […] Bound and unbound WT (left panel) and Y135A (middle panel) were detected by immunoblotting using anti-GsACBP3 antibodies. Input lanes represent 50% protein. Arrowheads indicate target bands. The PA-bound protein fraction was quantified densitometrically. The half maximal inhibitory concentration (IC50) of the WT is the mean ± SEM from three independent experiments.
To validate this assumption, the binding of the WT and Y135A mutant to PA beads was investigated in the presence of C18:2-CoA (Figure 5, D).
After three washes in the same buffer, bound proteins were eluted with 6× Laemmli sample buffer. Protein binding on filter strips, liposomes, and PA beads was detected by immunoblotting using anti-ACBP3.1 antibodies.

[3] = test system: GmACBP4.1_33–354 interaction with VLXB:StrepII; experiment: Strep-Tactin pull-down assay with supplemented acyl-CoAs; assay type: binding, soybean; details: acyl-CoA 12.5–100 μM, versus control without acyl-CoA
[4] = test system: GmACBP4.1_33–354 interaction with GmPLDα1:StrepII; experiment: as above; assay type: binding, soybean; details: acyl-CoA 12.5–100 μM, versus control without acyl-CoA
Description: Figure 6 Specific acyl-CoA species facilitate GmACBP4 interaction with VLXB and GmPLDα1. A, Strep-Tactin pull-down assays. […] (His)6-GmACBP4.1_33–354 were detected in eluates by immunoblotting using anti-ACBP3 antibodies. […] Input lanes represent 1% protein. Arrowheads indicate target bands of 40-kD (His)6-GmACBP4.1_33–354 (apparent: 50 kD). The bound protein fraction was quantified densitometrically. […] B–C, Strep-Tactin pull-down assays with supplemented acyl-CoAs. […] Input lanes represent 5% proteins in (B) or 10% proteins in (C). Arrowheads indicate target bands of 40-kD (His)6-GmACBP4.1_33–354 (apparent: 50kD).
Strep-Tactin pull-down assays were performed using Strep-Tactin XT resins (IBA) following the manufacturer’s instructions. Briefly, 5 μL of resins with/without prebound VLXB:StrepII or GmPLDα1:StrepII (0.5 μM) were agitated with GmACBP4.1_33–354 (0.5 μM) and acyl-CoAs (0, 12.5, 25, 50, and 100 μM) in Buffer W containing 0.1 M Tris–HCl (pH 7), 0.15 M NaCl, 1 mM EDTA and 0.05% (w/v) Triton X-100 at 4°C for 2 h. After three washes in Buffer W, bound proteins were eluted in Buffer W with 50 mM biotin, and analyzed by immunoblotting using anti-ACBP3.1 antibodies.

[5] = target: (His)6-GmACBP4.1_33–354; experiment: Isothermal titration calorimetry of acyl-CoA binding (WT protein); set-up: species or system soybean; details: ITC at 25°C; 15 μM protein titrated with 200 μM acyl-CoA; mean ± SD, three experiments; read-out: KD, dissociation constant
Experimental: ITC was conducted with a MicroCal iTC200 system (GE Healthcare) at 25°C in 10 mM sodium phosphate (pH 7) by 20 injections of 1.8-μL acyl-CoAs (200 μM; Avanti Polar Lipids Inc., Alabaster, AL, USA) into the sample cell with 15 μM purified (His)6-GmACBP4.1. Each injection lasted 4 s at 150-s intervals with a stirring speed of 1,000 rpm. Nonspecific heat effects were estimated and corrected after saturation. The baseline was adjusted, and the data were fitted into a single-site binding model using the Origin version 7.0 software (OriginLab).
Supplemental Table 1. Binding constants and thermodynamic parameters for (His)6-GmACBP4.133–354 interaction with acyl-CoAs. (Supports Figure 5A) […]
Isothermal titration calorimetry analysis was performed by titration of 250 μL of 15 μM (His)6-GmACBP4.133–354 with […]
from three independent experiments. n, stoichiometry (number of ligand sites per protein); KD, dissociation constant; ∆H, enthalpy change; −T∆S, entropy change; ∆G, Gibbs free energy.

[6] = target: (His)6-GmACBP4.1_33–354 (WT or Y135A mutant); experiment: Protein–lipid bead binding assay with competing acyl-CoA (PA beads); set-up: species or system soybean
[7] = test system: (His)6-GmACBP3.1_33–346; experiment: Protein–lipid overlay assay; assay type: binding, soybean; details: commercial strips with 15 neutral and polar lipids; 0.5 μg mL−1 protein
[8] = test system: (His)6-GmACBP4.1_33–354; experiment: Protein–lipid overlay assay; assay type: binding, soybean; details: commercial strips and PA-spotted nitrocellulose strips; 0.5 μg mL−1 protein
[9] = test system: (His)6-GmACBP4.1_33–354; experiment: Liposome association assay for PA binding; set-up: species or system soybean; details: PA:di-16:0-PC liposomes, 0–100% (w/w) PA
[10] = test system: AtACBP2 interaction with LYSOPL2; set-up: method as in Miao et al., 2019; details: ref Miao et al., 2019; cited from earlier work

CCCCC/C=C\C/C=C\CCCCCCCC(=O)SCCNC(=O)CCNC(=O)[C@H](O)C(C)(C)COP(=O)(O)OP(=O)(O)OC[C@H]1O[C@@H](n2cnc3c(N)ncnc32)[C@H](O)[C@@H]1OP(=O)(O)O [C18:2-CoA, linoleoyl-CoA]
pKd [1]: 6.10 to 6.40 | pIC50 [2]: 4.64 | increase in WT binding with VLXB:StrepII [3]: up to four-fold | increase in WT binding with GmPLDα1:StrepII [4]: did not influence | pKd [5]: 6.04 and 5.92 to 6.05 | pIC50 ([6]; WT protein 2.5 μg mL−1, 1 μM PA beads, competing C18:2-CoA, mean ± SEM, three experiments, read-out: half maximal inhibitory concentration (IC50) for PA-bound WT fraction): 4.64 | effect on Y135A binding to PA beads ([6]; Y135A mutant, compared with WT): less affected

CCCCCCCCCCCCCCCC(=O)OCC(COP(=O)(O)O)OC(=O)CCCCCCCCCCCCCCC (stereo not drawn) [di-16:0-PA]
binding on lipid filter strips [7]: sole ligand | binding on lipid filter strips [8]: sole ligand | descending order of affinity to the WT (liposome association) [9]: di-16:0-PA ≈ di-18:1-PA > di-18:0-PA > di-14:0-PA | descending order of affinity to the WT (liposome association) ([9]; listed as 32:0-PA): relatively higher affinity

lysophosphatidylcholine
fold higher affinity of AtACBP2 for LYSOPL2 interaction when complexed with the ligand [10]: 10 fold

Source: PMC8894927, “Oxylipin signaling in salt-stressed soybean is modulated by ligand-dependent interaction of Class II acyl-CoA-binding proteins with lipoxygenase” (The Plant Cell, 2021)
